Here are results for 6 compounds from patent US20060100224A1, “Piperidine ouracil used as a medicament for treating bacterial infections” (priority 2002, published 2006).

For the assay, the target named is T1, Pol III from S. aureus (PolC) (Staphylococcus aureus, UniProt P0C1P9).
T1 construct: His tag (pET15b) (N); made in house; host or cells: E. coli BL21(DE3)
T1 sequence (P0C1P9 1-1435): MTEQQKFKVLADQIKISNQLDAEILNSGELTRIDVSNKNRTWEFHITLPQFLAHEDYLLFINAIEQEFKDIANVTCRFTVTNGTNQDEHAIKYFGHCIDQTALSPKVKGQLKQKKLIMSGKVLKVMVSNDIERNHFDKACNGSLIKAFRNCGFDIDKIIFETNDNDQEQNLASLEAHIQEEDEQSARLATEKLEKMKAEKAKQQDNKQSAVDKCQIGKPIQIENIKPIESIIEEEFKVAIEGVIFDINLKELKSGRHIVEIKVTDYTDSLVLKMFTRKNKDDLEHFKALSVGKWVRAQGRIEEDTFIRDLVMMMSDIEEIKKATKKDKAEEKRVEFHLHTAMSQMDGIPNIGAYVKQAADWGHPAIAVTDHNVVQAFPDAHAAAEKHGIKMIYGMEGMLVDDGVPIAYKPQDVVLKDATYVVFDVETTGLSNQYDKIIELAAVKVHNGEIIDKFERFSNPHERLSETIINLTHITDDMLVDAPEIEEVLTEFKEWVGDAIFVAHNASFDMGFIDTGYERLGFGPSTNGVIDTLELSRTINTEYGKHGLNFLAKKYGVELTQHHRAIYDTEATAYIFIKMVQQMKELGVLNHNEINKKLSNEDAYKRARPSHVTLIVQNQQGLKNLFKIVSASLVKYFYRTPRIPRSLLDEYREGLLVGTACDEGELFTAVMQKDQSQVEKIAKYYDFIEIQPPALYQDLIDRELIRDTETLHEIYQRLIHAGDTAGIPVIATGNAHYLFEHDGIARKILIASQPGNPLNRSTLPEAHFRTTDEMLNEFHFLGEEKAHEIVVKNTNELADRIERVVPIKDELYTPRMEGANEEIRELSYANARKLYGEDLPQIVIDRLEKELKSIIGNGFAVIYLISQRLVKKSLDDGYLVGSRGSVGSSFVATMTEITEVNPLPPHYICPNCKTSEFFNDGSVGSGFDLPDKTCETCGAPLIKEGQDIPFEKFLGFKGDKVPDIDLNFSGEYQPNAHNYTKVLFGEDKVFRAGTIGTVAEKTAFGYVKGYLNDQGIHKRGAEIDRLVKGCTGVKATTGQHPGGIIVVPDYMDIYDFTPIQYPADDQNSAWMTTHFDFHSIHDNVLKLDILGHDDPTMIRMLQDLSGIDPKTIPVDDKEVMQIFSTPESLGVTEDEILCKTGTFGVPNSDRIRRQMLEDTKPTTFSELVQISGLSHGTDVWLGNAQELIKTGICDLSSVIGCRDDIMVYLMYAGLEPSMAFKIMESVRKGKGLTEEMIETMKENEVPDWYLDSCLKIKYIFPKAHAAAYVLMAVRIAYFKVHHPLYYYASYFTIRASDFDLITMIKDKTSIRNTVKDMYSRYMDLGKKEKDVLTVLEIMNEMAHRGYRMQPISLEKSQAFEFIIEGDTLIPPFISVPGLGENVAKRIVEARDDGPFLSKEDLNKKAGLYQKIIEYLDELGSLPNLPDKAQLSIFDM
Kind of assay: Determination of the IC50 for Polymerase III (PolC, luciferase-coupled pyrophosphate detection). Type of assay: biochemical. The conditions noted are these: purified PolC ~2 nM, 30° C., 30 min, activated calf thymus DNA. From the text:
Cloning, Expression and Purification of Pol III from S. aureus
To clone polC with an N-terminal His tag, the structural gene polC is amplified from S. aureus genomic DNA with the aid of PCR. The primers SAPol 31 5′-[…]-3′ and SAPolrev 5′-[…]-3′ are used to introduce the NdeI and BamHI restriction cleavage sites respectively in front of and behind the amplified gene. After the PCR product which is 4300 bp in size has been digested with NdeI and BamHI, it is ligated into the vector pET15b (Novagen, USA), which has likewise been digested with NdeI and BamHI, and transformed into E. coli XL-1 Blue.
After transformation into E. coli BL21(DE3), the cells are cultivated for expression of PolC at 30° C. in LB medium with 100 μg/ml ampicillin until the OD595 nm is 0.5, cooled to 18° C. and, after addition of 1 mM IPTG, incubated for a further 20 hours. The cells are harvested by centrifugation, washed once in PBS with 1 mM PMSF and taken up in 50 mM NaH2PO4 pH 8.0, 10 mM imidazole, 2 mM β-mercaptoethanol, 1 mM PMSF, 20% glycerol. The cells are disrupted using a French press at 12,000 psi, the cell detritus is removed by centrifugation ([…]×g, 120 min, 4° C.) and the supernatant is stirred with an appropriate amount of Ni-NTA-agarose (from Quiagen, Germany) at 4° C. for 1 hour. After the gel matrix has been packed into a column it is washed with 50 mM NaH2PO4 pH 8.0, 2 mM β-mercaptoethanol, 20 mM imidazole, 10% glycerol, and the purified protein is then eluted with the same buffer containing 100 mM imidazole. The purified protein is mixed with 50% glycerol and stored at −20° C.
Determination of the IC50 for Polymerase III
The activity of PolC is measured in an enzymatically coupled reaction, with the pyrophosphate formed during the polymerization being converted with the aid of ATP sulfurylase into ATP, which is detected using firefly luciferase. The reaction mixture contains, in a final volume of 50 μl, 50 mM Tris/Cl pH 7.5; 5 mM DTT, 10 mM MgCl2, 30 mM NaCl, 0.1 mg/ml BSA, 10% glycerol, 20 μM each dATP, dTTP, dCTP, 2U/ml activated calf thymus DNA (from Worthington, USA), 20 μM APS and 0.06 mM luciferin. The reaction is started by adding purified PolC in a final concentration of ˜2 nM and is incubated at 30° C. for 30 min. The amount of pyrophosphate formed is then converted into ATP by adding ATP sulfurylase (Sigma, USA) in a final concentration of 5 nM and incubating at 30° C. for 15 min. After addition of 0.2 nM firefly luciferase, the luminescence is measured in a luminometer for 60 s. The IC50 is reported as the concentration of an inhibitor which leads to 50% inhibition of the enzymic activity of PolC.
A word on the IC50: it is the concentration at which inhibition is half-maximal. A low value points to higher potency. The compound `Cc1ccoc1C(=O)N1CCCC(Cn2c(=O)cc(Nc3ccc4c(c3)CCC4)[nH]c2=O)C1` (stereo not drawn) [Example 39] registered an IC50 of 330 nM. `O=C(c1cccnc1)N1CCCC(Cn2c(=O)cc(Nc3ccc4c(c3)CCC4)[nH]c2=O)C1` (stereo not drawn) [Example 26] gave an IC50 of 220 nM.

In the case of `O=C(c1nc[nH]n1)N1CCCC(Cn2c(=O)cc(Nc3ccc4c(c3)CCC4)[nH]c2=O)C1` (stereo not drawn) [Example 17], inhibition was half-maximal at 340 nM (IC50). Turning to `O=C(c1csnn1)N1CCC(Cn2c(=O)cc(Nc3ccc4c(c3)CCC4)[nH]c2=O)CC1` [Example 13], the IC50 stood at 90 nM. `CCc1cc(Nc2cc(=O)n(CC3CCN(C(=O)c4ccno4)CC3)c(=O)[nH]2)ccc1C` [Example 9] came in with an IC50 of 140 nM.

Turning to `Cc1nnsc1-c1nc(C(=O)N2CCC(Cn3c(=O)cc(Nc4ccc5c(c4)CCC5)[nH]c3=O)CC2)cs1` [Example 21], 110 nM corresponded to half-maximal inhibition (IC50).
